The structures appear in SMILES notation. Active and inactive are the calls of the source.

The AC50 is the midpoint of the concentration-response curve, whichever way the signal moves. A word on the GI50: it is the concentration that inhibits growth by half.

A short description of test [1]: intracellular Trypanosoma cruzi inhibitors in host cells – cell-based, plate reader, cherry-pick samples, set 3, dose response (AID 651818).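 Further: compounds incubated with infected cells for about four days.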 The test is classed as functional.
For test [2], the target named is FAD-linked sulfhydryl oxidase ALR (Homo sapiens, UniProt P55789). The test is described as follows: inhibitors of human ALR sulfhydryl oxidase, dose response, biochemical, H2O2 detection, luminescence, cherry-pick (AID 493248).
Test [3] has as its target T1, Rac GTPase-activating protein 1 (Homo sapiens, UniProt Q9H0H5).
T1 sequence (Q9H0H5 whole entry): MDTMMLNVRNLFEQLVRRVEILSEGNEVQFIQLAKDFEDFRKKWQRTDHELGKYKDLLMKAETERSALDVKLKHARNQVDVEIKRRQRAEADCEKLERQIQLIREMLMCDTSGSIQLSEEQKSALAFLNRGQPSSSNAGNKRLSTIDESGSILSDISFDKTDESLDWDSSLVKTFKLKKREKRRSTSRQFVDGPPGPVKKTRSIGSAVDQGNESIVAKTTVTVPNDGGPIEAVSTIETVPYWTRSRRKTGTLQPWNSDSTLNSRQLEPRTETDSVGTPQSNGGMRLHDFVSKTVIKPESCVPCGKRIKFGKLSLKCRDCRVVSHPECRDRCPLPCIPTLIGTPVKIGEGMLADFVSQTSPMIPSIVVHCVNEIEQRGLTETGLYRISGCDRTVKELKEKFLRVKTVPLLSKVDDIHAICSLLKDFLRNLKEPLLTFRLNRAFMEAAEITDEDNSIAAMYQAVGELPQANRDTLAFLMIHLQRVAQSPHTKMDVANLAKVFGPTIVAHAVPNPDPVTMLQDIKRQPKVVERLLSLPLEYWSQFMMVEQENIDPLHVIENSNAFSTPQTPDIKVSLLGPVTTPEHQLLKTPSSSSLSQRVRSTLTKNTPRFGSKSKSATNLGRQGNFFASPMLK
The test is described as follows: MgcRacGAP GTPase-activating activity inhibitors, confirmation, biochemical, ADP Hunter fluorescence, primary and confirmatory (AID 624330). The test is classed as functional.

Test [4] relates to P388/ADR. In words: cells. Format: functional. The note with it: Mus musculus.
In test [5] the test system is SN12K1. In words: cells. The test is classed as functional. Particulars: Homo sapiens.
The test system of test [6] is P388. In words: cells. The test is classed as functional. The note with it: Mus musculus.
The target in test [7] is T2, Polyadenylate-binding protein 1 (Homo sapiens, UniProt P11940). In words: PABP1 MLLE–PAM2 interaction inhibitors, dose response, miRNA deadenylation inhibitor project, biochemical, fluorescence polarization, Cy5-PAM2 peptide, secondary (AID 602260). Format: functional. Particulars: read-out: IC50_Mean. (Polarisation of emitted light reports the rotation of a fluorescent probe.)

For test [8], the target named is T3, Corticotropin-releasing factor receptor 2/Corticotropin-releasing factor-binding protein (Homo sapiens, UniProt P24387+Q13324).
T3 sequence (Q13324 whole entry): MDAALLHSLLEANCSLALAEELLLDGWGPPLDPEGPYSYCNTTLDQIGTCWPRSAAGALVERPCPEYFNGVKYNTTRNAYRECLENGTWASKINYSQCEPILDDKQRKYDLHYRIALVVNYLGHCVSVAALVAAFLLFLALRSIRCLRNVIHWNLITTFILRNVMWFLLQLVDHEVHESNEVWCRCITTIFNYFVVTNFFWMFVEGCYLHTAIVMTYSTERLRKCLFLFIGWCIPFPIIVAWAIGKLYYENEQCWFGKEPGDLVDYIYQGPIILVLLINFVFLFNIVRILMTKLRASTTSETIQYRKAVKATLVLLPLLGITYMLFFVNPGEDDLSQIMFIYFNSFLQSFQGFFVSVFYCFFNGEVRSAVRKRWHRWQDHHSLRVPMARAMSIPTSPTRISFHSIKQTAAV
T3 sequence (P24387 whole entry): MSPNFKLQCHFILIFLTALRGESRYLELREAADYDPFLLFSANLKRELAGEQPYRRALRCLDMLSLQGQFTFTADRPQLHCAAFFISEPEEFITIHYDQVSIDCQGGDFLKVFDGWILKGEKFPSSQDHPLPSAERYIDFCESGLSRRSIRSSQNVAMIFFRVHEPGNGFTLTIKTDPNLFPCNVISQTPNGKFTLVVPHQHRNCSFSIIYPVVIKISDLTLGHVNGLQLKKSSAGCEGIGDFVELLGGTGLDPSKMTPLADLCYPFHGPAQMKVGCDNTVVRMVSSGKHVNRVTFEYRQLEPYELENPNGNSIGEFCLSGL
The test is described as follows: Dose Response confirmation of uHTS hits for small molecule antagonists of the CRF-binding protein and CRF-R2 receptor complex. Format: functional. The note with it: read-out: IC50_Mean.

Test [9] deals with T2, Polyadenylate-binding protein 1. The test is described as follows: PABP1 MLLE–PAM2 binding inhibitor potency, dose response, biochemical, fluorescence polarization, FITC-PAM2 peptide (AID 602259). The test is classed as functional. The note with it: read-out: IC50_Mean.
The target of test [10] is T3, Corticotropin-releasing factor receptor 2/Corticotropin-releasing factor-binding protein. The test is described as follows: activators of CRF receptor 2 with binding protein – uHTS hits, confirmation (AID 602473). Format: functional. Particulars: read-out: EC50_Mean.
Test [11] has as its target T4, Calpain-2 catalytic subunit (Sus scrofa, UniProt P43367).
T4 sequence (P43367 whole entry): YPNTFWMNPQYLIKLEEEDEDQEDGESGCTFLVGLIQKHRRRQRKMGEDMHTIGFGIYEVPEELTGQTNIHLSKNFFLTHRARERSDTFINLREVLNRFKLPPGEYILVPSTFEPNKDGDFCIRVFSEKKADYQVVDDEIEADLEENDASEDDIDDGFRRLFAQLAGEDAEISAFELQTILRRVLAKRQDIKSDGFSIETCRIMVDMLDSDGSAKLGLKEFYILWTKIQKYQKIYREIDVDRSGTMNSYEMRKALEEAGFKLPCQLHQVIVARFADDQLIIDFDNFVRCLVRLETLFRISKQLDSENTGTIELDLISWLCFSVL
The test is described as follows: pig calpain II inhibitor potency, dose response, biochemical, fluorogenic peptide substrate (AID 1420). The test is classed as functional.

Test [12] has as its target T5, High affinity choline transporter 1 (Homo sapiens, UniProt Q9GZV3).
T5 sequence (Q9GZV3 whole entry): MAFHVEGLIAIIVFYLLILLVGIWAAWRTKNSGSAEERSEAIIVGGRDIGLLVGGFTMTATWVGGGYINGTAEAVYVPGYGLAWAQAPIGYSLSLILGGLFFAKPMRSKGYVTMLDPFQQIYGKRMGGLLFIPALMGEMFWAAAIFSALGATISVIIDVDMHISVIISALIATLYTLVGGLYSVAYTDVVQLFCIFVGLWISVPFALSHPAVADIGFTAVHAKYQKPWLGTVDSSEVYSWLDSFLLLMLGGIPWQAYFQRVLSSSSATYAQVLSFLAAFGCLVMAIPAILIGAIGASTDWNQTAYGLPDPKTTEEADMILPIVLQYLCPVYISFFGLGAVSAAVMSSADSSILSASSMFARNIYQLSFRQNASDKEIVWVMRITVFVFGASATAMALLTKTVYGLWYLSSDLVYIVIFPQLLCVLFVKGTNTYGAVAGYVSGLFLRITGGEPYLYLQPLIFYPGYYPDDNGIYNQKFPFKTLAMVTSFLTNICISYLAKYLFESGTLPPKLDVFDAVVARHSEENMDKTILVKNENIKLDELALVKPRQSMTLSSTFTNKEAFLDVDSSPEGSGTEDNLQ
The test is described as follows: CHT inhibitors, dose response, cell-based, 5-point CRC, membrane potential dye (AID 504840). Format: functional.

T2 sequence (P11940 whole entry): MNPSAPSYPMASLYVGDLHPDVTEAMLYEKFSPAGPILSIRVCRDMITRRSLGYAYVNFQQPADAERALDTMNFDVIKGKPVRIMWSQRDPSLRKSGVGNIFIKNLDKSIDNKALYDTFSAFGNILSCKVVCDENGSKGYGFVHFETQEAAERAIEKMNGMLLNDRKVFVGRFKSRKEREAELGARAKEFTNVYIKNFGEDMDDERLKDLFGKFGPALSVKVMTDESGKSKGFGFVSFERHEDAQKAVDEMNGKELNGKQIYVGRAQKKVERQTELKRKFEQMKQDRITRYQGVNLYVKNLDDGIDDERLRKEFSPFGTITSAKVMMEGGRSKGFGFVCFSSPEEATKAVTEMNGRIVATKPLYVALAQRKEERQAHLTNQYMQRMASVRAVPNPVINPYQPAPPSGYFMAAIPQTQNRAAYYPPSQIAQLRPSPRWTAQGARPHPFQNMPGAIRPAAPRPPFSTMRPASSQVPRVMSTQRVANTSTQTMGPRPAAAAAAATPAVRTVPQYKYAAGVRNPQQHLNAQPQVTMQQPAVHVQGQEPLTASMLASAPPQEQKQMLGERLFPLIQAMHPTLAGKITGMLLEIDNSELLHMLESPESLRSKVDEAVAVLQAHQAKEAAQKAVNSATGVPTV
Sequence of FAD-linked sulfhydryl oxidase ALR (P55789 whole entry): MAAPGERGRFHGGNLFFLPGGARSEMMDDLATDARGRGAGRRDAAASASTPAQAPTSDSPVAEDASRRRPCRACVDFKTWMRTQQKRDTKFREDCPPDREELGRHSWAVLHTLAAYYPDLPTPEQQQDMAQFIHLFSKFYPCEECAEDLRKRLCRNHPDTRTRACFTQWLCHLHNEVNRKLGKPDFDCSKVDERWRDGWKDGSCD

For `C[C@@H]1CN([C@@H](C)CO)C(=O)c2cccc(NC(=O)Nc3ccc4c(c3)OCO4)c2O[C@@H]1CN(C)Cc1ccc(Oc2ccccc2)cc1`, in [1], the AC50 is 3.77 µM (active).
As to `COc1cc(/C=N/n2c(S)nnc2C2CCCCC2)ccc1O`, in test [2], the AC50 is 2.3 µM (active). Further, the IC50 in test [3] was 47.9 µM (active).
`C[C@@H]1CN([C@@H](C)CO)C(=O)c2cccc(NC(=O)CCCCCC(=O)Nc3ccccc3N)c2O[C@H]1CN(C)Cc1ccccc1`: the AC50 in test [1] was 2.43 µM (active).
`C=C1C(C)C2C(Cc3ccccc3)NC(=O)C23C(OC(C)=O)C=CC(C)(O)C(=O)C(C)C/C=C/C3C1O` (centres undefined): the GI50 was 14.4 µM (inactive) in test [4], 0.0619 µM (active) in [5] and 0.454 µM (active) in [6].
For `O=C1NC(=O)C2C3C=CC(C12)C1C2C(=O)NC(=O)C2C31` (centres undefined), the figures for the GI50 in [4], in test [5] and in test [6] were 122 µM (inactive), 85.3 µM (inactive) and 21 µM (inactive), respectively.
`C[C@@H]1CCCCO[C@H](CN(C)C(=O)Nc2ccc(C(F)(F)F)cc2)[C@@H](C)CN([C@H](C)CO)C(=O)c2cc(NS(=O)(=O)c3ccc(Cl)cc3)ccc2O1`: the AC50 in [1] is 4.76 µM (active).
In the case of `CC(C)[C@](O)(C(=O)OCC1=CCN2CC[C@@H](O)[C@@H]12)[C@H](C)O`, the GI50 in test [4], in test [5] and in test [6] was > 375 µM (inactive) throughout.
As for `Cc1nc2ccccc2c(=O)n1Nc1ccc(C(=O)O)cc1`, the GI50 in test [4], in test [5] and in test [6] was > 100 µM (inactive) each time.
With `Cc1cc(N2CCN(c3ccccc3)CC2)nc(N)n1`, in [2], the AC50 was 4.38 µM (active).
As for `Cc1cccc(C)c1NC(=S)Nc1ccc(F)cc1`, the figures for the IC50 in test [7], in [8] and in test [9] were > 66 µM (inactive), > 47.1 µM (inactive) and > 66 µM (inactive), respectively. For the same compound, the EC50 in test [10] was > 53 µM (inactive).
Take `O=C1CC(=O)N(c2ccccc2)N1c1ccccc1`: the AC50 in test [2] was 4.37 µM (active).
In the case of `C[C@H](CO)N1C[C@H](C)[C@H](CN(C)Cc2ccc(C(=O)Nc3ccccc3N)cc2)Oc2c(NC(=O)Nc3ccc(F)cc3)cccc2C1=O`, the AC50 in test [1] is 1.06 µM (active).
With `C[C@H](CO)N1C[C@H](C)[C@@H](CN(C)Cc2ccc(C(=O)Nc3ccccc3N)cc2)Oc2c(NS(=O)(=O)c3ccccc3)cccc2C1=O`, in test [1], the AC50 is 4.71 µM (active).
For the compound `C[C@H]1CN([C@@H](C)CO)C(=O)c2cccc(NC(=O)CCCCCC(=O)Nc3ccccc3N)c2O[C@H]1CN(C)Cc1ccc(Cl)c(Cl)c1`, in test [1], the AC50 is 3.18 µM (active).
Take `c1ccc2c3c(ccc2c1)-c1[nH]ncc1CCO3`: the values for the GI50 in test [4], in test [5] and in [6] were 26.9 µM (inactive), 22.4 µM (inactive) and 26.1 µM (inactive), respectively.
For the compound `COc1ccc(Cc2nn(C3OC(COC(C)=O)C(OC(C)=O)C(OC(C)=O)C3OC(C)=O)c(=S)n(-c3ccc(OC)cc3)c2=O)cc1` (centres undefined), the GI50 in [4], in test [5] and in [6] was > 100 µM (inactive) each time.
For `CC1CCN(C(=S)c2ccc([N+](=O)[O-])cc2)CC1`, the IC50 in test [7] and in test [9] was > 66 µM (inactive) in each case.
`O=C(NCc1cccnc1)c1ccc2c(c1)N(Cc1ccccc1)CCS2`: in test [2], the AC50 was 3.31 µM (active).
For `COC(=O)c1cccc(N[C@@H]2c3cc4c(cc3C(c3cc(OC)c(O)c(OC)c3)[C@H]3C(=O)OCC32)OCO4)c1` (some centres undefined), the GI50 in [4] was 0.271 µM (active); in test [5], 0.23 µM (active); in test [6] it was 0.0103 µM (active).
As to `Cc1noc(C)c1S(=O)(=O)Nc1cccc2c1O[C@H](CN(C)Cc1ccc(C(=O)Nc3ccccc3N)cc1)[C@H](C)CN([C@@H](C)CO)C2=O`, the AC50 in test [1] was 2.03 µM (active).
Turning to `CCOC(=O)NC1=C(N2CC2)C(=O)C(NC(=O)OCC)=C(N2CC2)C1=O` [DIAZIQUONE], the GI50 is 2.72 µM (inactive) in test [4], 2.94 µM (inactive) in test [5] and 1.77 µM (inactive) in test [6].
For `O=C1C(Br)=CC2([N+](=O)[O-])CCNC3=C(C4=NCCc5c[nH]c(c54)C3=O)C2=C1Br` (centres undefined), the values for the GI50 in test [4], in test [5] and in [6] were 0.579 µM (active), 3.3 µM (inactive) and 0.317 µM (active), respectively.
`CCCN(CCC)C(=S)NC(=O)c1ccc(-c2ccccc2)cc1`: the IC50 in test [11] was 36.7 µM (not active); in [7], > 66 µM (inactive); in test [9] it was > 66 µM (inactive).
With `Cc1ccc(S(=O)(=O)N2[C@@H](c3ccc(Cl)cc3)C(C(=O)O)=CC[C@H]2c2ccc(Cl)c(Cl)c2)cc1`, the AC50 in [2] is 6.86 µM (active). Also, in [12], the IC50 is 0.794 µM (active).
On to `C[C@H](CO)N1C[C@H](C)[C@H](CN(C)S(=O)(=O)c2ccc(F)cc2)Oc2ccc(NC(=O)Nc3ccc(C(F)(F)F)cc3)cc2CC1=O`, for which, in [1], the AC50 was 2.56 µM (active).
For the compound `O=C1N=C2SCCN2/C1=C\c1ccccc1Cl`, the IC50 in test [7] and in test [9] was > 66 µM (inactive) in each case.
For the compound `CC(=O)NNc1nc(-c2ccc(NC(C)=O)cc2)cs1`, the AC50 in [2] is 0.58 µM (active).
`COC(=O)c1ccc2c(=O)sc(N3CCC(C(N)=O)CC3)nc2c1`: the IC50 in [7] was > 66 µM (inactive); in [9], 52.6 µM (inactive).
On to `Cc1c2cnccc2c(C)c2c1c1ccccc1n2CC1CO1` (centres undefined), for which the figures for the GI50 in test [4], in test [5] and in test [6] were 0.065 µM (active), 0.719 µM (active) and 0.0291 µM (active), respectively.

Source of the values: ChEMBL document CHEMBL1201862, “PubChem BioAssay data set” (2004).
